The subject of one data set is P. falciparum. The note with it: read-out: P. falciparum IC50; in vitro; cited from earlier work.
The subject of a further data set is mammalian cell. To be noted: read-out: Cytotoxicity IC50; cited from earlier work.
A further data set concerns P. falciparum Dd2. As to the kind of experiment: microbe, parasite or virus in culture. The data set is classed as cell-based. The note with it: Plasmodium falciparum, DD2, read-out: P.falciparum IC50 PfDd2.
In another data set the test system is P. falciparum 3D7. The data set is classed as cell-based. The note with it: Plasmodium falciparum, 3D7, read-out: P.falciparum IC50 Pf3D7.
Data set [1] relates to normal human neonatal foreskin fibroblasts (NFFs). The experiment in a line: Cytotoxicity against neonatal foreskin fibroblasts. The format is cell-based. The note with it: Fibroblast, read-out: NFF IC50.
The test system of another data set is HepG2-A16-CD81EGFP cells. The experiment in a line: HepG2 cytotoxicity bioluminescence assay. The format is cell-based, human. To be noted: read-out: HepG2 IC50.
Data set [2] has as its system P. falciparum stage V gametocytes. As to the kind of experiment: ATP bioluminescence assay, mature gametocytes. The data set is classed as cell-based, Plasmodium falciparum. To be noted: read-out: Pf stage V gametocytes IC50.
The subject of data set [3] is P. berghei exo-erythrocytic forms (EEF). The data set is classed as cell-based, Plasmodium berghei. The note with it: read-out: Pb EEF IC50; P. berghei-Luc in HepG2-A16-CD81EGFP cells, 48 h.
Data set [4] deals with P. falciparum NF54 late stage gametocytes (IV-V). As to the kind of experiment: Imaging-based viability assay, late stage gametocytes. The format is cell-based. The note with it: Plasmodium falciparum, NF54, read-out: Pf LSG inhibition at 40 μM.

Where two headings read alike, the source gives them in different places. Some results are limits rather than exact numbers.

Consider ten compounds from article PMC6195125 (European journal of medicinal chemistry, 2018).

Take `CC(/C=C/C(=O)NO)=C\[C@@H](C)C(=O)c1ccc(N(C)C)cc1` [Trichostatin A (TSA), Trichostatin A]: the IC50 (usually the point on the concentration scale where inhibition reaches its midpoint) in the data set with P. falciparum was 8 to 11 nM. As for `O=C(/C=C/c1cccc(S(=O)(=O)Nc2ccccc2)c1)NO` [Belinostat], the values for the IC50 in the data set with P. falciparum and in the data set with mammalian cell were 60 to 130 nM and 1420 to 2370 nM, respectively.

`CCN(CC)CCCC(C)Nc1ccnc2cc(Cl)ccc12` (centres unmarked) [CQ, chloroquine]: the IC50 was 49 nM in the data set on P. falciparum Dd2 and 11 nM in the data set on P. falciparum 3D7. Regarding `Cc1ccc(NC(=O)CN(Cc2ccc(C(=O)NO)cc2)C(=O)c2cccc3ccccc23)cc1` [Compound 1k], the IC50 in data set [1] is greater than 10 µM. `O=C1C(O)=C([C@H]2CC[C@H](c3ccc(Cl)cc3)CC2)C(=O)c2ccccc21` [ATQ, Atovaquone]: the IC50 in the data set on HepG2-A16-CD81EGFP cells (Homo sapiens, HepG2, 48 h) was greater than 0.5 µM. As to `CN(C)c1ccc2nc3ccc(N(C)C)cc3[s+]c2c1` [methylene blue], the concentration for half-maximal inhibition (IC50) in data set [2] (Plasmodium falciparum, 48 h) worked out at 210 µM. As to `Cc1[nH]c2ccccc2c1CCNCc1ccc(/C=C/C(=O)NO)cc1` [Panobinostat], the values for the IC50 with P. falciparum and in the data set with mammalian cell were 10 to 30 nM and 70 to 180 nM, respectively.

In the case of “Methyl 4-((3,5-dimethyl-N-(2-oxo-2-(p-tolylamino)ethyl)benzamido)methyl)benzoate [Compound 1m]”, the IC50 in the data set with HepG2-A16-CD81EGFP cells (Table 4) is 21.4 µM; in the data set on HepG2-A16-CD81EGFP cells (Table 7 and text, 48 h), 21.4 µM; in data set [2] (ATP assay, 48 h incubation) it was 10.1 ± 3.72 µM; in data set [3], 5.55 µM.

For the compound `CCC(=O)CCCCC[C@@H]1NC(=O)[C@H]2CCCCN2C(=O)[C@H]([C@@H](C)CC)NC(=O)[C@H](Cc2cn(OC)c3ccccc23)NC1=O` [Apicidin], the concentration for half-maximal inhibition (IC50) in the data set with P. falciparum is 200 nM; in the data set with mammalian cell, 50 to 100 nM. Consider `O=C(CN(Cc1ccc(C(=O)NO)cc1)C(=O)c1cccc2ccccc12)NC1CCCCC1` [Compound 1g], for which the inhibition – broadly, how much of the control response was suppressed – at 40 µM in data set [4] was found to be 97%.
